Results: US5834284A, “N-acetylglucosaminyl transferase gene coding therefor and process for production thereof” (Suntory Limited, priority 1992, dated 1998)

Experiments:
GnT-V expression product = target: T1, GnT-V expression product (Homo sapiens, UniProt Q09328); experiment: Enzyme activity of cloned GnT-V cDNA expressed in COS-1 cells; type: biochemical; details: supernatant of disrupted COS-1 cells
T1 sequence (Q09328 1-741): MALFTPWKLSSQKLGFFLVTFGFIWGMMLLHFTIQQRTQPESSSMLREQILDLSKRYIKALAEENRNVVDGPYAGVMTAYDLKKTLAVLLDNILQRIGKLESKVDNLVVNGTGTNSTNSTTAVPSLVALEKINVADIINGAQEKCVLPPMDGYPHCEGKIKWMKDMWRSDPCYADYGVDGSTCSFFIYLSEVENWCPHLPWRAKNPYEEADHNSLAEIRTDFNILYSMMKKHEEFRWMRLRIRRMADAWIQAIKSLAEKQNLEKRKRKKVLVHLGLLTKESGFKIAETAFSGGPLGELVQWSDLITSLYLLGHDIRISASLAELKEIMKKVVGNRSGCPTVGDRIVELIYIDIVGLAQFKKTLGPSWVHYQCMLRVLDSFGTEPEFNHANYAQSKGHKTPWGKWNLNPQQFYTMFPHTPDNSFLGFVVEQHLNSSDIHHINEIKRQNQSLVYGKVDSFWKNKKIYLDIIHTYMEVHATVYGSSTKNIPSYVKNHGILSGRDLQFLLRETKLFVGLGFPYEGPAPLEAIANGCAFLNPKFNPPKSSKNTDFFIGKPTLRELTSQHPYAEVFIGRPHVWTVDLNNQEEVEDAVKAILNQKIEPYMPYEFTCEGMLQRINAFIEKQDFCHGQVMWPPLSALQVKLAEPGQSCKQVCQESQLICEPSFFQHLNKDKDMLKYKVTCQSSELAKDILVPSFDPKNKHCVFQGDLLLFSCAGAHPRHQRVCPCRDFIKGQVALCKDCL
Experimental: The expression vector constructed in Example 8 was used to express the GnT-V cDNA fragment in animal cells and GnT-V activity of the expressed protein was tested.
Expression vector containing GnT-V cDNA fragment was transfected to COS-1 cells, animal cells for expression, by electroporation. Namely, about 5×10^6 CO.S-1 cells previously prepared were suspended in HEPES buffer (50 mM Hepes, 137 mM NaCl, 5 mM KCl, 0.7 mM NaHPO3, 6 mM dextrose, pH 7.05), 60 μg of the above-mentioned plasmid was added thereon, and 800 μl of the suspension was subjected to electroporation in an electroporator (Bio-Rad) at 250V, […]. Next, all the suspensions of COS-1 cells electroporated with GnT-V gene was plated in a petri dish having the diameter of 6 cm, and cultured at 37° C. in 5% CO2 for 48 hours. The cultured ceils were collected with a rubber-coated police man bar, and suspended in 50 μl of PBS buffer, and the cells were disrupted with a sonicator. Next, the disruptant was centrifuged to collect a supernatant, and 15 μl of the supernatant was used to assay enzyme activity.

[1] = target: T2, GnT-V (β1,6-N-acetylglucosaminyl transferase) (Homo sapiens, UniProt Q09328); experiment: GnT-V enzyme activity assay with fluorescence-labeled sugar acceptors, product separated by HPLC; type: biochemical
T2 construct: 73/60 kDa
T2 sequence (Q09328 31-741): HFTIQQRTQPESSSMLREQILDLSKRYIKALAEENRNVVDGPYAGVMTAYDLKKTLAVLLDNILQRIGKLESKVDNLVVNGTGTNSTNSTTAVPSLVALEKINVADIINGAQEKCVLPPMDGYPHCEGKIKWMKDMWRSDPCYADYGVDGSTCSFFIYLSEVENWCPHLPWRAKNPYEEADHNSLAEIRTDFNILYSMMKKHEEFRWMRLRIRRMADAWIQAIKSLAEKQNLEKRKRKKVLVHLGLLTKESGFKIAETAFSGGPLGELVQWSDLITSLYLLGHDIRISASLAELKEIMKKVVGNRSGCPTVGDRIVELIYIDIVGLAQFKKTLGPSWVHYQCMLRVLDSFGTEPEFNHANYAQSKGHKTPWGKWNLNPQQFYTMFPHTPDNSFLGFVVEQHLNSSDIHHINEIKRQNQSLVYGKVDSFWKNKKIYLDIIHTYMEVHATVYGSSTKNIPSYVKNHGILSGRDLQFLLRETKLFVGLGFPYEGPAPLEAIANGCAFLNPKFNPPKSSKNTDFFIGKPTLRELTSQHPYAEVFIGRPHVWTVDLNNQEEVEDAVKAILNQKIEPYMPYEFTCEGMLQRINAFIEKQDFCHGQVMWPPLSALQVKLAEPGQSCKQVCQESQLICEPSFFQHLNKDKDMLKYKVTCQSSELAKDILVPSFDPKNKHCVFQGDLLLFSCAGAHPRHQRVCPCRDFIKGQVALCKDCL
Source text: An enzyme activity can be easily assayed by labeling an acceptor with a radioisotope or with fluorescent substance, adding the enzyme and separating the reaction product by high performance liquid chromatography (HPLC). More specifically, the method reported by Tanigichi et al. (Taniguchi, N., Nishikawa, A., Fujii, S., and Gu. J., Methods Enzymol. 179, 397-408 (1989); Nishikawa, H., Gu, J., Fujii, S., and Tanigichi, N., Biochem. Biophys. Acta, 1035, 313-318 (1990)) may be followed.
Namely, the enzyme activity of GnT-V can be assayed using GnGn-2-aminopyridine (GnGn-bi-PA) as an acceptor, and UDP-GluNAc (Sigma) as a donor. Activity is shown by an amount of transferred N-acetylglucosamine/hour/mg protein. Note, an amount of protein can be measured according to a reported method (Redinbaugh, M. G., and Turley, R. B., Anal. Biochem. 153, 267-271 (1986)) using a BCA kit (Pierce Chemical Company, Rockford, Ill.) and using bovine serum albumin as a standard.
Substrate specificity was determined using the following compound as sugar acceptors according to the above-mentioned enzyme activity measuring method. [drawing 1]
GnGnF--, GnGF--, GGnF--, Gn(Gn)GnF--, Gn(Gn)Gn--, GG--, GnGn--, MM-- and GnM-- were isolated from the bovine IgG treated with anhydrous hydrazine and then labeled with a fluorescence label according to Hase et al. method (Hase, S., Ibuki, T., and Ikehara, T., J. Biochem. 95, 197-203 (1984). The purified GnT-V was diluted with PBS buffer to a final concentration of 0.1 mg protein/ml, and then reacted with each fluorescence-labeled sugar acceptor. A result is shown in Table 2.

- Relative reaction rate ([1]; acceptor 70 μM, purified GnT-V 0.1 mg protein/ml, GnGn-bi-PA = 100): 100
- reactivity relative to GnGn-bi-PA acceptor taken as 100% ([1]; substrate specificity): 100%
Structure (SMILES): CC(=O)N[C@H]1[C@H](O[C@@H]([C@H](O)[C@H](CNc2ccccn2)NC(C)=O)[C@H](O)CO)O[C@H](CO)[C@@H](O[C@@H]2O[C@H](CO[C@H]3O[C@H](CO)[C@@H](O)[C@H](O)[C@@H]3O[C@@H]3O[C@H](CO)[C@@H](O)[C@H](O)[C@H]3NC(C)=O)[C@@H](O)[C@H](O[C@H]3O[C@H](CO)[C@@H](O)[C@H](O)[C@@H]3O[C@@H]3O[C@H](CO)[C@@H](O)[C@H](O)[C@H]3NC(C)=O)[C@@H]2O)[C@@H]1O [GnGn-bi-PA, GlcNAcβ1-2Manα1-3-(GlcNAcβ1-2Manα1-6)Manβ1-4GlcNAcβ1-4GlcNAc-2-aminopyridine]
- conversion of substrate by expression product GnT-V (HPLC elution profile, FIG. 10) (GnT-V expression product): converts a substrate GnGn-bi-PA to a product GnGnGn-tri'-PA
